Measured values published in US6573262B2, “Composition and antiviral activity of substituted indoleoxoacetic piperazine derivatives” (priority 2000, dated 2003).
pEC50: −log10 of the molar value.

Test system: HIV-1 single-round infectious reporter virus
Assay: microbe, parasite or virus in culture
Format: cell-based
Details: for pEC50: Human immunodeficiency virus 1, HeLa-CD4/CCR5, 72 h, read-out: EC50 Group from Table 1

Row | Structure (SMILES) | pEC50 | inhibition at 10 µM (Human immunodeficiency virus 1, HeLa-CD4/CCR5, read-out: % Inhibition @ 10 uM)
1 | COCCNC(=O)c1ccc(F)c2c(C(=O)C(=O)N3CCN(C(=O)c4ccccc4)CC3)c[nH]c12 [Example 152] | > 6.00 | –
2 | CC(C)(C)OC(=O)NCCNC(=O)c1ccc(F)c2c(C(=O)C(=O)N3CCN(C(=O)c4ccccc4)CC3)c[nH]c12 [Example 153] | > 6.00 | –
3 | NCCNC(=O)c1ccc(F)c2c(C(=O)C(=O)N3CCN(C(=O)c4ccccc4)CC3)c[nH]c12 [Example 154] | > 6.00 | –
4 | C[C@@H]1CN(C(=O)c2ccccc2)CCN1C(=O)C(=O)c1c[nH]c2c(-c3noc(N)n3)ccc(F)c12 [Example 155] | > 6.00 | –
5 | CN(C)c1nc(-c2ccc(F)c3c(C(=O)C(=O)N4CCN(C(=O)c5ccccc5)CC4)c[nH]c23)no1 [Example 156] | > 6.00 | –
6 | CNc1nc(-c2ccc(F)c3c(C(=O)C(=O)N4CCN(C(=O)c5ccccc5)CC4)c[nH]c23)no1 [Example 157] | > 6.00 | –
7 | CC(C)Nc1nc(-c2ccc(F)c3c(C(=O)C(=O)N4CCN(C(=O)c5ccccc5)CC4)c[nH]c23)no1 [Example 158] | > 6.00 | –
8 | C[C@@H]1CN(C(=O)c2ccccc2)CCN1C(=O)C(=O)c1c[nH]c2c(-c3noc(NCCN4CCOCC4)n3)ccc(F)c12 [Example 159] | > 6.00 | –
9 | CCC(C)Nc1nc(-c2ccc(F)c3c(C(=O)C(=O)N4CCN(C(=O)c5ccccc5)C[C@H]4C)c[nH]c23)no1 (some centres unmarked) [Example 160] | > 6.00 | –
10 | C[C@@H]1CN(C(=O)c2ccccc2)CCN1C(=O)C(=O)c1c[nH]c2c(-c3noc(NC4CCC4)n3)ccc(F)c12 [Example 161] | > 6.00 | –
11 | C[C@@H]1CN(C(=O)c2ccccc2)CCN1C(=O)C(=O)c1c[nH]c2c(-c3noc(NC4CCCC4)n3)ccc(F)c12 [Example 162] | > 6.00 | –
12 | O=C(C(=O)N1CCN(C(=O)c2ccccc2)CC1)c1c[nH]c2c(C3=NCCN3)ccc(F)c12 [Example 163] | > 6.00 | –
13 | O=C(C(=O)N1CCN(C(=O)c2ccccc2)CC1)c1c[nH]c2c(-c3nc4cnccc4[nH]3)ccc(F)c12 [Example 164] | > 6.00 | –
14 | O=C(C(=O)N1CCN(C(=O)c2ccccc2)CC1)c1c[nH]c2c(-c3nc4ncccc4[nH]3)ccc(F)c12 [Example 165] | > 6.00 | –
15 | N=C(Nc1cccnc1N)c1ccc(F)c2c(C(=O)C(=O)N3CCN(C(=O)c4ccccc4)CC3)c[nH]c12 [Example 166] | > 6.00 | –
16 | C[C@@H]1CN(C(=O)c2ccccc2)CCN1C(=O)C(=O)c1c[nH]c2c(-c3nnn(C)n3)ccc(F)c12 [Example 175] | – | > 98%
17 | C[C@@H]1CN(C(=O)c2ccccc2)CCN1C(=O)C(=O)c1c[nH]c2c(-c3noc(=O)[nH]3)ccc(F)c12 [Example 176] | > 6.00 | –
18 | C[C@@H]1CN(C(=O)c2ccccc2)CCN1C(=O)C(=O)c1c[nH]c2c(C(=O)NCCN3CCOCC3)ccc(F)c12 [Example 177] | > 6.00 | –

Row | Structure (SMILES) | pEC50 | inhibition at 10 µM (Human immunodeficiency virus 1, HeLa-CD4/CCR5, read-out: % Inhibition @ 10 uM)
19 | Cc1nc(-c2ccc(F)c3c(C(=O)C(=O)N4CCN(C(=O)c5ccccc5)C[C@H]4C)c[nH]c23)no1 [Example 178] | > 6.00 | –
20 | C[C@@H]1CN(C(=O)c2ccccc2)CCN1C(=O)C(=O)c1c[nH]c2c(-c3noc(C4CC4)n3)ccc(F)c12 [Example 179] | > 6.00 | –
21 | C[C@@H]1CN(C(=O)c2ccccc2)CCN1C(=O)C(=O)c1c[nH]c2c(-c3noc(C(F)(F)F)n3)ccc(F)c12 [Example 180] | > 6.00 | –
22 | C[C@@H]1CN(C(=O)c2ccccc2)CCN1C(=O)C(=O)c1c[nH]c2c(-c3ncon3)ccc(F)c12 [Example 181] | > 6.00 | –
23 | COC(=O)c1nc(-c2ccc(F)c3c(C(=O)C(=O)N4CCN(C(=O)c5ccccc5)C[C@H]4C)c[nH]c23)no1 [Example 182] | > 6.00 | –
24 | N/C(=N\O)c1ccc(F)c2c(C(=O)C(=O)N3CCN(C(=O)c4ccccn4)CC3)c[nH]c12 [Example 183] | > 6.00 | –
25 | NC(=O)c1ccc(F)c2c(C(=O)C(=O)N3CCN(C(=O)c4ccccn4)CC3)c[nH]c12 [Example 184] | > 6.00 | –
26 | C[C@@H]1CN(C(=O)c2ccccn2)CCN1C(=O)C(=O)c1c[nH]c2c(-c3noc(C(Cl)(Cl)Cl)n3)ccc(F)c12 [Example 187] | > 6.00 | –
27 | O=C(C(=O)N1CCN(C(=O)c2ccccn2)CC1)c1c[nH]c2c(-c3noc(C(Cl)(Cl)Cl)n3)ccc(F)c12 [Example 188] | > 6.00 | –
28 | Nc1nc(-c2ccc(F)c3c(C(=O)C(=O)N4CCN(C(=O)c5ccccn5)CC4)c[nH]c23)no1 [Example 189] | > 6.00 | –
29 | C[C@@H]1CN(C(=O)c2ccccn2)CCN1C(=O)C(=O)c1c[nH]c2c(-c3noc(N)n3)ccc(F)c12 [Example 190] | > 6.00 | –
30 | O=C(C(=O)N1CCN(C(=O)c2ccccn2)CC1)c1c[nH]c2c(-c3ncon3)ccc(F)c12 [Example 191] | > 6.00 | –
31 | C[C@@H]1CN(C(=O)c2ccccn2)CCN1C(=O)C(=O)c1c[nH]c2c(-c3ncon3)ccc(F)c12 [Example 192] | > 6.00 | –
32 | O=C(C(=O)N1CCN(C(=O)c2ccccc2)CC1)c1c[nH]c2c(-c3nnc(C(Cl)(Cl)Cl)o3)ccc(F)c12 [Example 193] | > 6.00 | –
33 | O=C(C(=O)N1CCN(C(=O)c2ccccc2)CC1)c1c[nH]c2c(-c3n[nH]c(CCl)n3)ccc(F)c12 [Example 194] | > 6.00 | –
34 | C[C@@H]1CN(C(=O)c2ccccc2)CCN1C(=O)C(=O)C1CNc2c(C(=O)O)cccc21 (stereo partly drawn) [Example 215, 1-benzoyl-3-(R)-methyl-4-[(7-carboxyindolin-3-yl)-2-oxoacetyl]piperazine] | > 6.00 | –
35 | COC(=O)/C=C/c1ccc(F)c2c(C(=O)C(=O)N3CCN(C(=O)c4ccccc4)CC3)c[nH]c12 [Example 217] | > 6.00 | –
